Patent publication US20230373972A1, “PIPERAZINE DERIVATIVE, PREPARATION METHOD THEREFOR AND USE THEREOF” (Zhejiang Hisun Pharmaceutical Co., Ltd., priority 2020, published 2023)
Read-outs that look alike come from different tables or passages of the source.

Tests used:
[1] = molecular target: T1, Native human Factor XIa protease (Homo sapiens, UniProt P03951); assay: Inhibition of activity of Factor XIa protease (chromogenic substrate S-2366); assay type: biochemical; conditions: S-2366 1 mM, 37° C. 10 minutes, absorption at 405 nm
T1 construct: The Native human Factor XIa protease was purchased from Abcam; purchased Abcam ab62411
In short: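 Native human Factor XIa (final […]) in 100 mM Tris-HCl, 200 mM NaCl, 0.02% Tween 20, pH 7.4, preincubated with compound 5 min on ice; 1 mM S-2366 added, 10 min at 37° C. Absorbance at 405 nm versus 0.1% DMSO control; IC50 by nonlinear regression, compound 10,000 nM to […] final.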

[2] = Pharmacokinetics in SD rat; assay type: in vivo; conditions: male, plasma; for Cmax: read-out: Blood concentration Cmax; for AUC(0-t): read-out: Curve area AUC0-t; for half-life: read-out: Half-life period T1/2(h) (converted); for bioavailability: intragastric 10 mg/kg vs injection 1 mg/kg, read-out: Bioavailability F(%)
Method: Taking a SD rat as a test animal, the SD rat was administrated with the compound of the present invention by intravenous injection and/or intragastric administration, and drug concentrations in plasma at different times were determined by a IC/MS/MS method to study pharmacokinetic characteristics of the compound of the present invention in the SD rat.
SD rats, male, 195 g to 235 g, 6 weeks old to 8 weeks old, purchased from Shanghai JieSiJie Laboratory Animal Co., Ltd.
Preparation of drug administrated by intravenous injection: a proper amount of compound to be tested was added to a proper amount of DMAC; (30% Soltol HS 15): Saline=10%: 10%: 80% (v/v/v), and shaken in a vortex manner, so as to prepare a final solution with a concentration of 0.5 mg/mL.
Preparation of drug administrated by intragastric administration: a proper amount of compound to be tested was added to a proper amount of DMAC: (30% Soltol HS 15): Saline=10%: 10%: 80% (v/v/v), and shaken in a vortex manner, so as to prepare a final solution with a concentration of 1 mg/mL.
SD rats were divided into an intravenous injection group of the compound to be tested (3 rats/group) and an intragastric administration group (3 rats/group) of the compound to be tested.
Intravenous injection group: the drug was administrated by dorsalis pedis vein injection (according to a dosage of 1 mg/kg and a volume of 2 mL/kg) without fasting.
Intragastric administration group: the drug was administrated by intragastric administration (according to a dosage of 10 mg/kg and a volume of 10 mL/kg) after fasting overnight, and food was taken 4 hours after administration.
Intravenous injection group: about 150 μL of blood was collected into an EDTA-K2 anticoagulant tube through a jugular vein 0.083 hour, 0.25 hour, 0.5 hour, 1 hour, 2 hours, 4 hours, 8 hours and 24 hours after administration.
Intragastric administration group; about 150 μL of blood was collected into an EDTA-K2 anticoagulant tube through a jugular vein 0.25 how, 0.5 hour, 1 hour, 2 hours, 4 hours, 8 hours and 24 hours after administration.
The blood sample was stored in wet ice first, and plasma was centrifugally separated within 15 minutes after sampling (centrifugation conditions: 2,000 g, 4° C., 5 minutes). The collected upper plasma was stored at −70° C. before analysis.
Contents of the compound to be tested in rat plasma after intravenous injection and intragastric administration were determined by LC-MS/MS.

[3] = system: human plasma; assay: In-vitro anticoagulation on human plasma (APTT kit, coagulation time); conditions: concentration of the compound when the coagulation time (APTT) was prolonged twice
[4] = po, intragastric administration 10 mg/kg
[5] = iv, injection administration 1 mg/kg

T1 sequence (P03951 388-625 limits assumed): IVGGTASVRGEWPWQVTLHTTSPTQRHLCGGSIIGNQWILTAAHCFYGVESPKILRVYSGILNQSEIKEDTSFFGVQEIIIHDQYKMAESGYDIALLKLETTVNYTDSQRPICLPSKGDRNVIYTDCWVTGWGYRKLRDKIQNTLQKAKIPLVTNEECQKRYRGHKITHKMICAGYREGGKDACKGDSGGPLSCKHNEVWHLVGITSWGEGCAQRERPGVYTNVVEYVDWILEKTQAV
T1 sequence (P03951 19-387 partner limits assumed): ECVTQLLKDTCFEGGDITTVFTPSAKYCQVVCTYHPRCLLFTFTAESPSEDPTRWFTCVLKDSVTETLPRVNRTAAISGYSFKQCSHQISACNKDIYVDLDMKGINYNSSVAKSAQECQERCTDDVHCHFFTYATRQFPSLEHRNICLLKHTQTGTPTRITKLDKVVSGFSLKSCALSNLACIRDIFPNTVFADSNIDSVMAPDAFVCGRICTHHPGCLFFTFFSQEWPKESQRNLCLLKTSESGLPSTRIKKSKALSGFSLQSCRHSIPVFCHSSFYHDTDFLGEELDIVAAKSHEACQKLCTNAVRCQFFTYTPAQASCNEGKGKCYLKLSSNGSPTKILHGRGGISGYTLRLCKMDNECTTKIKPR

SMILES	IC50 [1]	Cmax [2, 4]	AUC(0-t) [2, 4]	half-life [2, 4]	AUC(0-t) [2, 5]	half-life [2, 5]	bioavailability ([2]; po)	CT2 [3]
COCCC(C(=O)Nc1ccc2nn(C)cc2c1)N1CC(=O)N(c2cc(Cl)ccc2-n2cc(Cl)nn2)CC1=O (centres unmarked) [Example 38, 2-(4-(5-Chloro-2-(4-chloro-1H-1,2,3-triazol-1-yl)phenyl)-2,5-dioxopiperazin-1-yl)-4-methoxy-N-(2-methyl-2H-indazol-5-yl)butanamide]	61.4 nM	1.36 ± 0.564 µg/mL	3.08 ± 0.281 µg·h/mL	2.63 ± 0.172 h				19.0 µM
Cn1ccc(CC(C(=O)Nc2ccc3nn(C)cc3c2)N2CC(=O)N(c3cc(Cl)ccc3-n3cc(Cl)nn3)CC2=O)n1 (centres unmarked) [Example 111, 2-(4-(5-chloro-2-(4-chloro-1H-1,2,3-triazol-1-yl)phenyl)-2,5-dioxopiperazin-1-yl)-3-(1-methyl-1H-pyrazol-3-yl)-N-(2-methyl-2H-indazol-5-yl)propanamide]	45.3 nM	1.42 ± 0.703 µg/mL	2.56 ± 0.409 µg·h/mL	2.37 ± 1.21 h				19.6 µM
Cn1cc2cc(NC(=O)C(CC3CCCCO3)N3CC(=O)N(c4cc(Cl)ccc4-n4cc(Cl)nn4)CC3=O)ccc2n1 (centres unmarked) [Example 117, 2-(4-(5-Chloro-2-(4-chloro-1H-1,2,3-triazol-1-yl)phenyl)-2,5-dioxopiperazin-1-yl)-N-(2-methyl-2H-indazol-5-yl)-3-(tetrahydro-2H-pyran-2-yl)propanamide]		2.22 ± 0.552 µg/mL	3.94 ± 0.984 µg·h/mL	0.735 ± 0.0242 h				6.3 µM
NC(=O)c1ccc(NC(=O)C(Cc2ccccc2)N2CC(=O)N(c3cc(Cl)ccc3-n3cc(Cl)nn3)CC2=O)cc1F (centres unmarked) [Example 36, 4-(2-(4-(5-chloro-2-(4-chloro-1H-1,2,3-triazol-1-yl)phenyl)-2,5-dioxopiperazin-1-yl)-3-phenylpropanamido)-2-fluorobenzamide]	27.1 nM	0.798 ± 0.868 µg/mL	2.19 ± 2.75 µg·h/mL	1.15 ± 0.0495 h				15.9 µM
Cn1cc2cc(NC(=O)C(Cc3ccccc3)N3CC(=O)N(c4cc(Cl)ccc4-n4cnnn4)CC3=O)ccc2n1 (centres unmarked) [Example 19, 2-(4-(5-Chloro-2-(1H-tetrazol-1-yl)phenyl)-2,5-dioxopiperazin-1-yl)-N-(2-methyl-2H-indazol-5-yl)-3-phenylpropanamide]	8.5 nM							3.0 µM
O=C(Nc1ccc2nn(C(F)F)cc2c1)C(Cc1ccccc1)N1CC(=O)N(c2cc(Cl)ccc2-n2cc(Cl)nn2)CC1=O (centres unmarked) [Example 45, 2-(4-(5-Chloro-2-(4-chloro-1H-1,2,3-triazol-1-yl)phenyl)-2,5-dioxopiperazin-1-yl)-N-(2-(difluoromethyl)-2H-indazol-5-yl)-3-phenylpropanamide]	19.1 nM	1.17 ± 0.576 µg/mL	4.71 ± 2.12 µg·h/mL	2.04 ± 1.08 h				11.3 µM

The next lines start with results.

IC50 [1]	Cmax [2, 4]	AUC(0-t) [2, 4]	half-life [2, 4]	AUC(0-t) [2, 5]	half-life [2, 5]	bioavailability ([2]; po)	SMILES	CT2 [3]
14.8 nM	1.39 ± 0.521 µg/mL	3.46 ± 1.23 µg·h/mL	0.895 ± 0.0751 h	0.431 ± 0.117 µg·h/mL	0.818 ± 0.37 h	80.4 ± 28.5%	Cn1cc2cc(NC(=O)C(Cc3ccccc3)N3CC(=O)N(c4cc(Cl)ccc4-n4cc(Cl)nn4)CC3=O)ccc2n1 (centres unmarked) [Example 25, 2-(4(5-chloro-2-(4-chloro-1H-1,2,3-triazol-1-yl)phenyl)-2,5-dioxopiperazin-1-yl)-N-(2-methyl-2H-indazol-5-yl)-3-phenylpropanamide]	6.6 µM
	3.42 ± 2.35 µg/mL	3.02 ± 2.54 µg·h/mL	1.38 ± 0.297 h	0.552 ± 0.108 µg·h/mL	0.5 ± 0.0254 h	54.7 ± 46%	Cn1ccc(C[C@H](C(=O)Nc2ccc3nn(C)cc3c2)N2CC(=O)N(c3cc(Cl)ccc3-n3cc(Cl)nn3)CC2=O)n1 [Example 113, (R)-2-(4-(5-chloro-2-(4-chloro-1H-1,2,3-triazol-1-yl)phenyl)-2,5-dioxopiperazin-1-yl)-3-(1-methyl-1H-pyrazol-3-yl)-N-(2-methyl-2H-indazol-5-yl)propanamide]	
24.4 nM	1.1 ± 0.498 µg/mL	4.85 ± 1.57 µg·h/mL	0.994 h	0.326 ± 0.0612 µg·h/mL	0.595 ± 0.222 h	149 ± 48.1%	Cn1cc2cc(NC(=O)C(Cc3ccc(F)cc3)N3CC(=O)N(c4cc(Cl)ccc4-n4cc(Cl)nn4)CC3=O)ccc2n1 (stereo in doubt) [Example 99, (R)-2-(4-(5-chloro-2-(4-chloro-1H-1,2,3-triazol-1-yl)phenyl)-2,5-dioxopiperazin-1-yl)-3-(4-fluorophenyl)-N-(2-methyl-2H-indazol-5-yl)propanamide]	6.9 µM
45.2 nM	2.85 ± 0.268 µg/mL	12.2 ± 3.19 µg·h/mL	2.13 ± 0.18 h				Cn1cc2cc(NC(=O)C(Cc3ccc(F)cc3)N3CC(=O)N(c4cc(Cl)ccc4-n4cc(Cl)nn4)CC3=O)ccc2n1 (centres unmarked) [Example 47, 2-(4-(5-Chloro-2-(4-chloro-1H-1,2,3-triazol-1-yl)phenyl)-2,5-dioxopiperazin-1-yl)-3-(4-fluorophenyl)-N-(2-methyl-2H-indazol-5-yl)propanamide]	9.3 µM
